Measured values published in patent US6750247B2, “Sponge-derived terpenoids and methods of use” (Galileo Laboratories, Inc., priority 2001, dated 2004).
pIC50: −log10 of the molar value. Counter-ions that a name gives are not always drawn.

Tests used:
[1] = tested on: primary hippocampal neuronal cells; experiment: Hippocampal anoxia-reoxygenation cell death assay; type: cell-based, mice; conditions: for Dose for Max. Activity / Percent Activity: 5 hr hypoxia, 20-24 hr reoxygenation; for Percent Activity: at dose for max. activity, live neurons by Cell Tracker Green; for cell viability: compared to hypoxia-reoxygenated cells
Method: Neurobasal medium (Life Technologies, Rockville, Md.) with 1× B27 supplement (Life Technologies), […], 25 μM L-glutaxnic acid, and 1× Penicillin/Streptomycin was prepared fresh prior to use. Hank's Basic Salt Solution (HBSS, Ca/Mg-free) was prepared by preparing 1× Hanks CMF (Gibco) supplemented with HEPES (10 mM, pH 7.3), sodium bicarbonate (0.35%), 1× Penicillin/Streptomycin, and 1 mM pyruvate. Poly-D-lysine (Sigma, St. Louis, Mo.) was prepared by filtering a 50 μg/ml solution through 0.2 μm filter tubes. Sigmacote (Sigma, St. Louis, Mo.). Plastic Culture Flasks (T75 cm^2) or 12-well cell culture plates were then treated with Poly-D-Lysine (Sigma, St. Louis, Mo.).
Pregnant female mice (E18-E19) were euthanized with CO2 prior to removal of the uterus, which was then placed in a sterile plastic petri dish. The embryos were removed from the sac, and the embryonic brains removed and immersed in cold (4° C.) Hepes Buffered Salt Solution (HBSS; Ca/Mg free; Life Technologies) in a small petri dish. Hippocampi were then removed from the brains under a dissecting microscope and were placed on a paraffin-covered dish. The meninges were stripped away and the dissected hippocampi were collected in a small petri dish in HBSS. The hippocampi were transferred to a 15-ml centrifuge tube (normally 10-12 brains per tube) filled with HBSS. The tube containing the brains was centrifuged at 1000 rpm for 2 minutes in a GH 3.8 A rotor in an Allegra Centrifuge (Beckman Instruments, Fullerton, Calif.). The supernatant was removed, 2 ml of HBSS was added to the hippocampi in the tube, and the resulting suspension was triturated 2 times each with long-tipped siliconized glass pipettes having progressively smaller apertures, starting with a pipette with a standard size opening (approximately 1.0 mm diameter), following with one having an aperture of half standard size (approximately 0.5 mm diameter), then with one having an aperture about one-half that size (0.25 mm diameter). The suspension was then centrifuged again at 1000 rpm for 2 min in a tabletop centrifuge, the supernatant was discarded, and 2 ml of Neurobasal/B27i (with antibiotics) was added to the tube. The trituration procedure described above was then repeated on this suspension.
The density of cells was determined on a small aliquot of cells using standard counting procedures and correcting for cell viability by trypan blue stain exclusion. Using this procedure, the expected yield is 3×10^5-6×10^5 cells/brain. Cells were then added to PDL-coated 12 well plates, flasks or MetTek dishes in Neurobasal/B27I at a density of about 1.5×10^6 cells (T75 flask) or about 100,000 cells/well of a 12-well plate. Plated cells were incubated at 37° C. with 5% CO2 in air atmosphere. Media was renewed after 3-4 days by replacing half of it with fresh Neurobasal/B27m medium, containing 5 μM cytosine arabinoside (AraC). Seven to eight days from the initial culture, the media was renewed again, by removing one-half or it and replacing with an equal amount of fresh Neurobasal/B27m medium (without Ara-C).
This assay was used to induce ischemia by anoxia-reoxygenation in cultured hippocampal neuronal cells. Test compounds were added to assess potency and efficacy against ischemia-induced neuronal cell injury and cell death.
Neurobasal media, NoG neurobasal media, B27 supplement and B27 Supplement minus AO were obtained from Life Technologies. Neurobasal/B27 medium was prepared with 2× B27 minus AO supplement, 0.5 mM L-glutamine and 0.25× penicillin/streptomycin. Cell Tracker Green was obtained from Molecular Probes and a fresh 5 μM solution was prepared from 10 mM stock just before use. NoG-Neurobasal contains NoG neurobasal medium plus 0.5 mM glucose, 0.1 mM L-glutamine and 0.25× Penicillin/Streptomycin. Primary hippocampal neuronal cells were prepared according to the methods described above and were cultured in poly-D-lysine coated 12 well plates for 10-11 days prior to use. […]

neonatal cardiomyocytes = experiment: Myocyte calcium-contractility assay (cardiomyocyte beating anoxia assay); type: cell-based, rat; conditions: 16 hr anoxia, 2 hr reoxygenation; for Percent Activity: at dose for max. activity, Fluo-4 fluorescence
Method: 10× Heart Dissection Solution (HDS) contains the following components (g/l) in tissue culture grade water: NaCl, 68; HEPES, 47.6; NaH2PO4, 2; Glucose, 10; KCl, 4; MgSO4, 1, pH adjusted to 7.4. Prior to filter sterilization of diluted (1× HDS) solution, 10 mg phenol red was added to each 500 milliliters of medium. Transferrin and Bovine Insulin were obtained from Life Technologies, and resuspended at a concentration of 4 mg/ml in tissue culture grade water. DMEM-F12- DMEM/F12, powder, 1:1 containing glutamine and pyridoxine hydrochloride was purchased from Life Technologies. To one liter equivalent of the powder was added 2.43 g of sodium bicarbonate and 10 ml of 100× Penicillin/Streptomycin in 950 ml of tissue culture grade water with stirring. The pH was adjusted to 7.2 with 1M HCl and volume was adjusted to 1 liter. The solution was filter sterilized then 2.5 ml of 4 mg/ml Transferrin, 250 μl 4 mg/ml Insulin and 30.7 mg of bromodeoxyuridine were added. DMEM-F12 was also prepared with 4% FBS for pre-coating the tissue culture plates and initial suspension of the cardiomyocyte pellet. Collagenase solution-49 mg of collagenase was resuspended in 120 ml 1× HDS.
Tissue culture plasticware was pre-coated with DMEM-F12-4% FBS by incubating 50 μl per well of a 96-well plate. Two-day old rat pups were removed from their mothers and placed in a sterile container. Pups were dipped quickly into 70% alcohol, then decapitated and the body was placed in an empty sterile tissue culture dish. An incision was made starting at the neck and progressing towards the belly, cutting through the sternum. The heart was removed and placed in a tissue culture dishes containing 1× HDS. The atria were trimmed, and the remaining ventricles were placed into a separate tissue culture dish containing 1× HDS, where they were sectioned into 3-4 pieces each. Ventricles were then transferred to a sterile 250 ml glass flask and the 1× HDS was removed. Twenty milliliters of pre-warmed collagenase solution were added to the ventricles, followed by incubation at 37° C. with shaking. After 30 minutes, the collagenase solution was removed and replaced with 20 ml fresh pre-warmed collagenase. Incubation was continued for an additional 20 minutes. At the end of the incubation, any tissue chunks were allowed to settle prior to removing the collagenase (containing the isolated cardiomyocytes) from the disrupted tissue pieces. The isolated myocytes were added to a 50 ml Falcon tube containing 2 ml Fetal Bovine Serum (FBS). The remaining tissue pieces were subjected to a second digestion by adding 20 ml fresh pre-warmed collagenase and incubating as above for 20 minutes. This second digest was then centrifuged at 1000 rpm for 10 minutes in a GH 3.8 A rotor in an Allegra 6 Centrifuge (Beckman Instruments, Fullerton, Calif.). The resulting supernatant was discarded, and the cell pellet was suspended with 4 ml FBS. The resulting cell suspension was placed in the incubator at 37° C. This step was repeated several additional times to harvest additional material.
Percoll gradients were prepared by adding 2.5 ml of 10× HDS to 22.5 ml of Percoll (Life Technologies) with mixing (Percoll Stock). Top Gradient solution (11 ml Percoll Stock and 14 ml 1× HDS) and Bottom Gradient solution (13 ml Percoll Stock and 7 ml 1× HDS) were prepared. Four milliliters of the Top Gradient solution were transferred into 6×15 ml sterile Falcon tubes. Three milliliters of the Bottom Gradient solution were placed in each tube by inserting a serological pipette to the bottom of the tube and slowly adding the liquid.
All the digests (5 in total) were pooled in one 50 ml Falcon tube and centrifuged on a tabletop Allegra 6 Centrifuge (Beckman Instruments, Fullerton, Calif.) using a GH 3.8 A rotor at 1000 rpm for 10 minutes. The supernatant was discarded, and the cell pellet was resuspended in 12 ml of 1× HDS. Two milliliters of the cell suspension was added to the top of each gradient. […]

[2] = target: T1, 15-human lipoxygenase (15-HLO) (Homo sapiens, UniProt P16050); experiment: 15-human lipoxygenase (15-HLO) inhibition assay; type: biochemical; conditions: 3 μM linoleic acid, pH 7.5, approx. 22° C.
T1 construct: made in house
T1 sequence (P16050 1-662): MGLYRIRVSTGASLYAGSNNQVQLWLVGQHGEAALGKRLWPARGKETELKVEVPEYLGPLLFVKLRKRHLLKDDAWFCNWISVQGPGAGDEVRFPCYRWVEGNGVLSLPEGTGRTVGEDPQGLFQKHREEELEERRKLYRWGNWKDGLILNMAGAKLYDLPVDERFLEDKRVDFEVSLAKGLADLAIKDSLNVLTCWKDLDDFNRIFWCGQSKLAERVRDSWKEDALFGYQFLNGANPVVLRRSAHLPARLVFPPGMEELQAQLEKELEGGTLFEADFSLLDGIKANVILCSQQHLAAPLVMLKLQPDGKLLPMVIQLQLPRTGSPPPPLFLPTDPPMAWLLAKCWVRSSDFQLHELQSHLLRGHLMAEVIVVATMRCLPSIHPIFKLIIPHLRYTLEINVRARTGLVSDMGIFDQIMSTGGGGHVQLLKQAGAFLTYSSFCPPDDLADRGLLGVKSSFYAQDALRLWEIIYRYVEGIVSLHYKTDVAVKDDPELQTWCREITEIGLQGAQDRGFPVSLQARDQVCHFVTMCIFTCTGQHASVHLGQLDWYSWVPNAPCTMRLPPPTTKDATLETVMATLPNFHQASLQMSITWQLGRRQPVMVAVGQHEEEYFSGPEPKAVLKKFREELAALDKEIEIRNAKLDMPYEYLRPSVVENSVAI
Method: 15-human lipoxygenase (15-HLO) was expressed and purified as described by Holman et al., J. Am. Chem. Soc. […] 15-HLO enzyme activity was determined by direct measurement of the product formation of a 3 μM linoleic acid solution by monitoring the increase of absorbance at 234 nm in 25 mM Hepes (pH 7.5), 0.2% (g/L) cholic acid. All reactions were performed in 2 ml of buffer (approx. 200 nM 15-HLO) under constant stirring at approximately 22° C. IC50 values were determined by measuring the enzymatic rate at a variety of inhibitor concentrations (depending upon inhibitor potency) and plotting their corresponding values versus inhibitor concentration. The corresponding data was fit to a simple saturation curve and the inhibitor concentration at 50% activity was determined. The subject inhibitors used in the assay were dissolved in MeOH at a concentration of approximately 25 mg/ml.

| SMILES | Dose for Max. Activity [1] [µg/mL] | Percent Activity [1] | cell viability [1] | Percent Activity (neonatal cardiomyocytes) | Dose for Max. Activity (neonatal cardiomyocytes) [µg/mL] | cell viability (neonatal cardiomyocytes) | pIC50 [2] |
| --- | --- | --- | --- | --- | --- | --- | --- |
| CC(=O)O[C@@H]1OC=C2[C@@H](OC(C)=O)C[C@H]3[C@]4(C)CC[C@@H]5C([C@H](C)CCC5(C)C)[C@H]4C[C@@H](O)[C@]3(C)[C@H]21 (some centres unmarked) [Heteronemin (13), 24,25-epoxy-17(24)-scalarene-12-ol-16,25-diacetate] | 0.1 | 21% | increased cell viability | No activity at 100 μg/mL |  |  |  |
| CC(C)=CCC/C(C)=C/CCC1=CC(O)OC1=O (racemic) [Dictyodendrillin C (12), 3-(4,8-dimethyl-nona-3,7-dienyl)-5-hydroxy-5H-furan-2-one] |  |  |  | 46% | 100 | increased cell viability |  |
| CC1CCC2C(=CCCC2(C)C)C1(C)CCC(CO)CCCc1ccoc1 (centres unmarked) [Halisulfate 7 alcohol (8), 5-furan-3-yl-2-[2-(1,2,5,5-tetramethyl-1,2,3,4,4a,5,6,7-octahydro-naphthalen-1-yl)-ethyl]-pentan-1-ol] |  | No activity at 10 μg/mL |  | No activity at 75 μg/mL |  |  |  |
| CC(C)=CCC/C(C)=C/CCC1=CC(=O)OC1O (racemic) [Dictyodendrillin B (11), 4-(4,8-dimethyl-nona-3,7-dienyl)-5-hydroxy-5H-furan-2-one] | 0.1 | 56% | increased cell viability | No activity at 100 μg/mL |  |  |  |
| CC(C)=CCC[C@@]1(C)CCC[C@]2(C)[C@@H](Cc3cc(C(=O)O)ccc3O)C(C)=CC[C@@H]12 [(−)-jaspic acid (4), 4-hydroxy-3-[2,5,8a-trimethyl-5-(4-methyl-pent-3-enyl)-1,4,4a,5,6,7,8,8a-octahydro-naphthalen-1-ylmethyl]-benzoic acid] | 1 | 63% | increased cell viability | 59% | 3 | increased cell viability |  |
| CCCCCCCC/C=C\CCCCCCCCOS(=O)(=O)O [oleyl sulfate, reference compound] |  |  |  |  |  |  | 6.40 |
